Experimental data as given in ChEMBL document CHEMBL5303573, “Mapping human microbiome drug metabolism by gut bacteria and their genes” (Nature, 2019).

Assays:
[1] = enterocloster bolteae, 12 h, 2 µM
Description: The drug is tested on Clostridium bolteae strain: ATCCBAA-613 for biotransformation. The drug concentrations were measured before and after a 12-h incubation by liquid-chromatography-coupled mass spectrometry (LC–MS)

[2] = The drug is tested on Coprococcus comes strain: ATCC27758 for biotransformation. The drug concentrations were measured before and after a 12-h incubation by liquid-chromatography-coupled mass spectrometry (LC–MS); assay type: ADME; parameters: dose 2 uM, timepoint 0 vs 12 hours; conditions: 2 µM
[3] = The drug is tested on Ruminococcus gnavus strain: ATCC29149 for biotransformation. The drug concentrations were measured before and after a 12-h incubation by liquid-chromatography-coupled mass spectrometry (LC–MS); conditions: mediterraneibacter gnavus, 2 µM
[4] = The drug is tested on Bacteroides ovatus strain: ATCC8483 for biotransformation. The drug concentrations were measured before and after a 12-h incubation by liquid-chromatography-coupled mass spectrometry (LC–MS); conditions: 2 µM
[5] = The drug is tested on Eubacterium ventriosum strain: ATCC27560 for biotransformation. The drug concentrations were measured before and after a 12-h incubation by liquid-chromatography-coupled mass spectrometry (LC–MS); assay type: ADME; parameters: dose 2 uM, timepoint 0 vs 12 hours; conditions: 2 µM
[6] = The drug is tested on Eubacterium rectale strain: ATCC33656 for biotransformation. The drug concentrations were measured before and after a 12-h incubation by liquid-chromatography-coupled mass spectrometry (LC–MS); conditions: agathobacter rectalis, 2 µM
[7] = The drug is tested on Eubacterium hallii strain: DSM3353 for biotransformation. The drug concentrations were measured before and after a 12-h incubation by liquid-chromatography-coupled mass spectrometry (LC–MS); conditions: anaerobutyricum hallii, 2 µM
[8] = The drug is tested on Bifidobacterium longum subsp. Infantis strain: CCUG52486 for biotransformation. The drug concentrations were measured before and after a 12-h incubation by liquid-chromatography-coupled mass spectrometry (LC–MS); conditions: 2 µM
[9] = The drug is tested on Escherichia coli strain: BW25113 for biotransformation. The drug concentrations were measured before and after a 12-h incubation by liquid-chromatography-coupled mass spectrometry (LC–MS); conditions: 2 µM
[10] = bacteroides stercoris, 12 h, 2 µM
Description: The drug is tested on Bacteroides stercoris strain: ATCC43183 for biotransformation. The drug concentrations were measured before and after a 12-h incubation by liquid-chromatography-coupled mass spectrometry (LC–MS)

[11] = The drug is tested on Bacteroides pectinophilus strain: ATCC43243 for biotransformation. The drug concentrations were measured before and after a 12-h incubation by liquid-chromatography-coupled mass spectrometry (LC–MS); conditions: 2 µM
[12] = The drug is tested on Ruminococcus lactaris strain: ATCC29176 for biotransformation. The drug concentrations were measured before and after a 12-h incubation by liquid-chromatography-coupled mass spectrometry (LC–MS); conditions: 2 µM
[13] = The drug is tested on Parabacteroides merdae strain: ATCC43184 for biotransformation. The drug concentrations were measured before and after a 12-h incubation by liquid-chromatography-coupled mass spectrometry (LC–MS); conditions: 2 µM
[14] = The drug is tested on Bacteroides dorei strain: DSM17855 for biotransformation. The drug concentrations were measured before and after a 12-h incubation by liquid-chromatography-coupled mass spectrometry (LC–MS); conditions: phocaeicola dorei, 2 µM
[15] = The drug is tested on Bacteroides fragilis strain: ATCC43859 for biotransformation. The drug concentrations were measured before and after a 12-h incubation by liquid-chromatography-coupled mass spectrometry (LC–MS); conditions: 2 µM
[16] = The drug is tested on Clostridium asparagiforme strain: DSM15981 for biotransformation. The drug concentrations were measured before and after a 12-h incubation by liquid-chromatography-coupled mass spectrometry (LC–MS); assay type: ADME; parameters: dose 2 uM, timepoint 0 vs 12 hours; conditions: enterocloster asparagiformis, 2 µM
[17] = The drug is tested on Clostridium sp. strain: fecal isolate for biotransformation. The drug concentrations were measured before and after a 12-h incubation by liquid-chromatography-coupled mass spectrometry (LC–MS); conditions: 2 µM
[18] = The drug is tested on Subdoligranulum variabile strain: DSM15176 for biotransformation. The drug concentrations were measured before and after a 12-h incubation by liquid-chromatography-coupled mass spectrometry (LC–MS); conditions: 2 µM
[19] = The drug is tested on Blautia hansenii strain: DSM20583 for biotransformation. The drug concentrations were measured before and after a 12-h incubation by liquid-chromatography-coupled mass spectrometry (LC–MS); conditions: 2 µM
[20] = parabacteroides distasonis, 12 h, 2 µM
Description: The drug is tested on Parabacteroides distasonis strain: ATCC8503 for biotransformation. The drug concentrations were measured before and after a 12-h incubation by liquid-chromatography-coupled mass spectrometry (LC–MS)

Structure (SMILES) | Bacterial Biotransformation [1] | Bacterial Biotransformation [2] | Bacterial Biotransformation [3] | Bacterial Biotransformation [4] | Bacterial Biotransformation [5] | Bacterial Biotransformation [6] | Bacterial Biotransformation [7] | Bacterial Biotransformation [8] | Bacterial Biotransformation [9] | Bacterial Biotransformation [10] | Bacterial Biotransformation [11] | Bacterial Biotransformation [12] | Bacterial Biotransformation [13] | Bacterial Biotransformation [14] | Bacterial Biotransformation [15] | Bacterial Biotransformation [16] | Bacterial Biotransformation [17] | Bacterial Biotransformation [18] | Bacterial Biotransformation [19] | Bacterial Biotransformation [20]
O=C(Nc1ccccc1)OCC(CN1CCCCC1)OC(=O)Nc1ccccc1 (configuration not stated) [DIPERODON] | Compound NOT metabolized | Compound NOT metabolized | Compound NOT metabolized | Compound NOT metabolized | Compound NOT metabolized | Compound NOT metabolized | Compound NOT metabolized | Compound NOT metabolized | Compound NOT metabolized | Compound NOT metabolized | Compound NOT metabolized | Compound NOT metabolized | Compound NOT metabolized | Compound NOT metabolized | Compound NOT metabolized | Compound NOT metabolized |  |  |  | 
COc1cc2nc(N3CCN(C(=O)C4COc5ccccc5O4)CC3)nc(N)c2cc1OC.CS(=O)(=O)O (configuration not stated) [DOXAZOSIN MESYLATE] |  | Compound NOT metabolized | Compound NOT metabolized | Compound NOT metabolized | Compound NOT metabolized |  | Compound NOT metabolized |  | Compound metabolized | Compound NOT metabolized | Compound NOT metabolized | Compound NOT metabolized | Compound NOT metabolized | Compound metabolized | Compound NOT metabolized |  | Compound metabolized | Compound NOT metabolized | Compound metabolized | 
Cc1ccccc1N1C(=O)c2cc(S(N)(=O)=O)c(Cl)cc2NC1C (configuration not stated) [METOLAZONE] |  |  | Compound NOT metabolized |  |  |  | Compound NOT metabolized | Compound NOT metabolized |  | Compound NOT metabolized | Compound NOT metabolized |  |  |  | Compound NOT metabolized | Compound NOT metabolized |  |  |  | Compound NOT metabolized
CO[C@]12C[C@@H](COC(=O)c3cncc(Br)c3)CN(C)[C@@H]1Cc1cn(C)c3cccc2c13 [NICERGOLINE] |  |  | Compound NOT metabolized | Compound NOT metabolized | Compound NOT metabolized |  | Compound NOT metabolized | Compound NOT metabolized | Compound NOT metabolized | Compound NOT metabolized | Compound NOT metabolized | Compound NOT metabolized | Compound NOT metabolized | Compound metabolized | Compound NOT metabolized |  | Compound NOT metabolized | Compound NOT metabolized | Compound NOT metabolized | Compound NOT metabolized
CN1CCC(OC(c2ccccc2)c2ccccc2)CC1 |  | Compound NOT metabolized | Compound NOT metabolized | Compound NOT metabolized | Compound NOT metabolized | Compound NOT metabolized | Compound NOT metabolized | Compound NOT metabolized | Compound NOT metabolized | Compound NOT metabolized | Compound NOT metabolized | Compound NOT metabolized | Compound NOT metabolized | Compound NOT metabolized | Compound NOT metabolized |  |  | Compound NOT metabolized | Compound NOT metabolized | 
CC(CCc1ccccc1)NCC(O)c1ccc(O)c(C(N)=O)c1 (configuration not stated) [LABETALOL] | Compound NOT metabolized | Compound NOT metabolized | Compound NOT metabolized | Compound NOT metabolized | Compound NOT metabolized | Compound NOT metabolized | Compound NOT metabolized | Compound NOT metabolized | Compound NOT metabolized | Compound NOT metabolized | Compound NOT metabolized | Compound NOT metabolized | Compound NOT metabolized | Compound NOT metabolized | Compound NOT metabolized |  | Compound NOT metabolized | Compound NOT metabolized | Compound NOT metabolized | Compound NOT metabolized
Cc1ccnc2c1NC(=O)c1cccnc1N2C1CC1 [NEVIRAPINE] | Compound NOT metabolized | Compound NOT metabolized | Compound NOT metabolized | Compound NOT metabolized | Compound NOT metabolized |  | Compound NOT metabolized | Compound NOT metabolized |  | Compound NOT metabolized | Compound NOT metabolized | Compound NOT metabolized | Compound NOT metabolized | Compound NOT metabolized | Compound NOT metabolized |  | Compound metabolized | Compound NOT metabolized | Compound metabolized | Compound NOT metabolized
CN1CCC(=C2c3ccccc3CC(=O)c3sccc32)CC1.O=C(O)/C=C/C(=O)O [KETOTIFEN FUMARATE] |  | Compound NOT metabolized | Compound NOT metabolized | Compound NOT metabolized | Compound NOT metabolized | Compound NOT metabolized | Compound NOT metabolized | Compound NOT metabolized |  | Compound NOT metabolized | Compound NOT metabolized | Compound NOT metabolized | Compound NOT metabolized | Compound NOT metabolized | Compound NOT metabolized |  | Compound NOT metabolized | Compound NOT metabolized | Compound NOT metabolized | Compound NOT metabolized
N#Cc1ccc(C(c2ccc(C#N)cc2)n2cncn2)cc1 [LETROZOLE] | Compound NOT metabolized | Compound NOT metabolized | Compound NOT metabolized | Compound NOT metabolized | Compound NOT metabolized |  | Compound NOT metabolized | Compound NOT metabolized | Compound NOT metabolized | Compound NOT metabolized | Compound NOT metabolized | Compound NOT metabolized | Compound NOT metabolized | Compound NOT metabolized | Compound NOT metabolized |  | Compound NOT metabolized | Compound NOT metabolized | Compound NOT metabolized | Compound NOT metabolized
